The values below come from US20120225949A1, “COMPOSITIONS AND METHODS FOR TREATING BIPOLAR DISORDER” (priority 2009, published 2012).

For series [1] the following is noted: cited from earlier work.
The subject of series [2] is Childhood-Onset Bipolar Disorder With FOH. The series is described as follows: Ketamine treatment of childhood-onset bipolar disorder with FOH (single-subject case report). Particulars: 2 intranasal puffs of ketamine. The series is classed as in vivo, human. From the text: Subject is a child referred by their parents for psychiatric care to address their intense and often violent rages.
Subject has had episodic rages that have escalated in frequency and intensity since their adoption at 18 months. They have always experienced extreme separation anxiety but their aggression has shifted from themself toward their parents since starting school. The abuse towards their parents has included hitting, kicking, biting, and propelling objects. Parents came for consultation for fear that Subject will become more dangerous as they age.
Subject is currently on seroquel—225 mg (50 mg time release mornings, 25 mg afternoon, 150 mg time release evenings), lithium 600 mg (300 mg mornings and evenings), and 2 intranasal puffs of ketamine.

Series [3] in a line: Subject's earlier response to sedative/analgesic drugs (medical history). Particulars: child, around adenoid removal.
For series [4] the following is noted: cited from earlier work. This is another data set of the same source.
Series [5] deals with PCP site of the NMDA receptor. Particulars: (S)- versus (R)-ketamine; cited from earlier work.

In the case of `CNC1(c2ccccc2Cl)CCCCC1=O` (stereo not drawn) [ketamine, [(2-2-chlorophenyl)-2-(methylamino)-cyclohexanone]], the “dose at which mild adverse effects (dysphoria and/or hallucinations, "ketamine dreams") can occur” value in series [1] (dose of ketamine) is “greater than 50 mg”. Besides, in series [1] (total dose intranasally), the “dose usually required for mild adverse effects (dysphoria and/or hallucinations)” value was “greater than 100 mg”. Also, in series [2], the coordination result is on record as “improved coordination”, the coping with transitions entry is given as “able to cope with transitions without the aid of transitional rituals”, the “dependence on transitional objects” value was “decreased to the rare occasion” and the hallucinations result is “complete remission”. Also, in series [2], the hoarding behavior result was “ceased”, the motion sickness result is “no more motion sickness”, the night sweats entry was “no longer complains of night sweats” and the physical well-being entry is given as “much improvement”. Also, in series [2], the sleep result is listed as “improved greatly”; the speech result is “improved with much greater regularity in coherence, tempo, volume, and clarity”; the thirst on awakening entry was “no longer awakens extremely thirsty”. The delusions result in series [2] (except the last few days of the ketamine cycle) is on record as “subsided”. Further, the aggression result in series [2] (returns on occasion the few days prior to next administration) is recorded as “nearly disappeared”. Further, the dreams entry in series [2] (subject's report) was ““good dreams” have replaced their “bad dreams.””. The “overall response after the use of ketamine” value in series [2] (child, with seroquel 225 mg and lithium 600 mg) was “quite notable changes in body temperature, speech, levels of fear, sleep, attention, aggression, and psychosis/delusions”.
As to `Cc1ncc2n1-c1ccc(Cl)cc1C(c1ccccc1F)=NC2` [Versid], the “response of subject to drug (medical history)” value in series [3] is reported as “extreme hyperactivity instead of relaxation”.
Turning to `CN[C@]1(c2ccccc2Cl)CCCCC1=O` [(S)-ketamine], the induction of drowsiness result in series [4] (comparison of enantiomers) is recorded as “more strongly than the (R) enantiomer”. For the same molecule, the “affinity for the PCP site of the NMDA receptor relative to (R)-ketamine” value in series [5] is listed as “about four”.
`CN[C@@]1(c2ccccc2Cl)CCCCC1=O` [(R)-ketamine]: in series [4] (in vivo), the hallucinogenic effect entry is “hallucinogenic”.
